Legend:
STAT5 = STAT5 cell-based luciferase reporter system
Procedure: To determine if atovaquone inhibits STAT3, it was tested in a cell-based reporter system of STAT3 transcriptional activity (Nelson E A, et al. (2008) Nifuroxazide inhibits survival of multiple myeloma cells by directly inhibiting STAT3. Blood 112(13):5095-5102). These cells lack basal STAT3 activation; upon IL-6 treatment, STAT3 becomes activated and drives transcription of a STAT3-dependent luciferase reporter gene. The STAT3-luc reporter cells were pre-treated with drug for 1 hour, then stimulated with IL-6 (10 ng/ml) for 5 hr. Activity of firefly luciferase was measured and normalized by cell viability (Cell Titer Glo). […] To determine if atovaquone inhibits STAT3 activity specifically over other transcription factors, it was tested in cell-based reporter systems for STAT1 and STAT5, two other STAT family members, and NF-κB, an unrelated transcription factor.

JAK family members = assay: In vitro kinase assays (Invitrogen SelectScreen); format: biochemical; conditions: atovaquone 15 μM
Procedure: FIG. 15 contains a bar graph quantifying kinase activity (expressed as percent of vehicle) for the indicated kinases (JAK1, JAK2, JAK3, TYK2, SRC) determined using in vitro kinase assays (Invitrogen SelectScreen) and following treatment with atovaquone (AQ) (15 μM) or JAK inhibitor 1 (0.5 μM).
To understand how atovaquone inhibits STAT3 phosphorylation, the possibility that atovaquone decreases the kinase activity of JAKs, which are responsible for STAT3 activation in the systems previously tested was considered. To assess kinase activity, the extent of kinase auto-phosphorylation, which provides a cellular readout of kinase activity, was first analyzed. […] In particular, U266 cells were treated with atovaquone (15 μM) or JAK inhibitor 1(1 μM) for 1 hour, followed by lysis and immunoprecipitation to TYK2. The blot was probed with a pan-phospho-tyrosine antibody (FIG. 14A). Due to technical limitations, tyrosine phosphorylation of other JAK family members was not detected in U266 cells. Next, HEL cells were treated with atovaquone (20 μM) or JAK inhibitor 1 (1 μM) for 6 hours, followed by lysis and immunoprecipitation to JAK2, which was selected because these cells harbor mutant JAK2-V617F. The blot was probed with a pan-phospho-tyrosine antibody, as well as antibodies specific to phospho-Tyr570 and phospho-Tyr1007/1008 (FIG. 14B). […]

[1] = test system: PDGFR-β, EGFR, HER2, and IGF1R-β; assay: Western blot of other receptors; format: cell-based; conditions: MEF, MDA-MB-468, SKBR3; 25 μM, 6 or 12 hours
Procedure: Western blotting was performed as previously described (Battle T E, Arbiser J, & Frank D A (2005) The natural product honokiol induces caspase dependent apoptosis in B-cell chronic lymphocytic leukemia (B-CLL) cells. Blood 106(2):690-697). Antibodies to phospho-MAPK (9101), total MAPK (9102), phospho-Y705 STAT3 (9131), phospho-S6 (2215), total S6 (2217), phospho-4E-BP1 (9451), total 4E-BP1 (9644), total RSK (9355), phospho-S6K (9234, 85 used at 1:5000), total S6K (2708), phospho-eIF2α (9721, used at 1:1000), total eIF2α (5324), ATF4 (11815, used at 1:1000), PDGFRβ (3169), IGF1Rβ (9750), EGFR (2232), and HER2 (2242) were from Cell Signaling Technology. Phospho-RSK antibody was from R&D (AF889). Antibodies to total STAT3 (sc-482) and gp130 (sc-656, used at 1:1000) were from Santa Cruz Biotechnology. Phospho-S727 STAT3 antibody was described previously (229). REDD1 antibody was from Proteintech (10638-1-AP, used at 1:1000). Antibody recognizing full-length and cleaved ATF6 was from Abcam (ab122897, used at 1:1000). Antibodies to tubulin (T5168) and beta actin (A5316) were from Sigma. […] Cell viability was measured as ATP-dependent luminescence by Cell Titer Glo (Promega).
MEF, MDA-MB-468, and SKBR3 cells were treated with atovaquone (25 μM) for 6 or 12 hours, then analyzed by Western blot for expression of gp130 and various other receptors. […]

## O=C1C(O)=C([C@H]2CC[C@H](c3ccc(Cl)cc3)CC2)C(=O)c2ccccc21 [atovaquone, trans-2-[4-(4-chlorophenyl)cyclohexyl]-3-hydroxy-1,4-naphthalenedione]
STAT5
  STAT5 transcription factor activity: modestly affected at the higher doses
JAK family members
  in vitro kinase activity: no inhibition
[1]
  levels of other receptors (PDGFR-β, EGFR, HER2, IGF1R-β): not affected
